Reference: US10611747B2, “Pyrone based compounds for treating bacterial infections” (FORGE THERAPEUTICS, INC., priority 2015, dated 2020)
Values after ≈ are worked out from the molar mass of the structure shown. Where two headings read alike, the source gives them in different places.

Assays:
Experiment in all cases: Bacterial susceptibility testing (MIC, broth microdilution)
Format in all cases: cell-based
[1] = system: E. coli ATCC 25922; conditions: Escherichia coli
Procedure: (§1) Minimal inhibitory concentrations (MIC) were determined by the broth microdilution method in accordance with the Clinical and Laboratory Standards Institute (CLSI) guidelines. In brief, organism suspensions were adjusted to a 0.5 McFarland standard to yield a final inoculum between 3×10^5 and 7×10^5 colony-forming units (CFU)/mL. Drug dilutions and inocula were made in sterile, cation adjusted Mueller-Hinton Broth (Beckton Dickinson). An inoculum volume of 100 μL was added to wells containing 100 μL of broth with 2-fold serial dilutions of drug. All inoculated microdilution trays were incubated in ambient air at 35° C. for 18-24 h. […] Performance of the assay was monitored by the use of laboratory quality-control strains and levofloxacin, a compound with a defined MIC spectrum, in accordance with CLSI guidelines.

[2] = system: E. coli BW25113; conditions: Escherichia coli, no FBS, 35° C., 18-24 h
Procedure: as §1

[3] = system: E. coli delta tolC; conditions: Escherichia coli, 24 h, read-out: MIC E. coli delta tolC
Procedure: as §1

[4] = system: E. coli imp mutant; conditions: Escherichia coli, read-out: MIC E. coli imp mutant
Procedure: as §1

[5] = system: P. aeruginosa 209
Procedure: as §1

[6] = system: P. aeruginosa 210 delta mexAB-OprM; conditions: Pseudomonas aeruginosa, read-out: MIC P. aeruginosa 210 delta mexAB-OprM
Procedure: as §1

[7] = system: S. aureus ATCC 29213; conditions: Staphylococcus aureus
Procedure: as §1

[8] = ATCC25922, no FBS, broth microdilution, 35° C., 18-24 h, read-out: MIC E. coli ATCC 25922-no FBS
[9] = Pseudomonas aeruginosa, 209, broth microdilution, 35° C., 18-24 h, read-out: MIC P. aeruginosa 209
[10] = ATCC29213, broth microdilution, 35° C., 18-24 h, read-out: MIC S. aureus ATCC 29213
[11] = ATCC25922, read-out: MIC E. coli ATCC 25922-no FBS
[12] = Pseudomonas aeruginosa, 209, read-out: MIC P. aeruginosa 209
[13] = ATCC29213, read-out: MIC S. aureus ATCC 29213

Structure (SMILES)	MIC [1, 8] [µg/mL]	MIC [2] [µg/mL]	MIC [3] [µg/mL]	MIC [4] [µg/mL]	MIC [5, 9] [µg/mL]	MIC [6] [µg/mL]	MIC [7, 10] [µg/mL]	MIC [1, 11] [µg/mL]	MIC [5, 12] [µg/mL]	MIC [7, 13] [µg/mL]
CNC(=O)c1ccc(-c2ccc(NCc3oc(CNS(C)(=O)=O)cc(=O)c3O)cc2)cc1 [Compound 1, 4′-(((3-hydroxy-6-(methylsulfonamidomethyl)-1-oxo-4H-pyran-2-yl)methyl)amino)-N-methyl-[1,1′-biphenyl]-4-carboxamide]	> 32	> 32	> 32	> 32	> 32	> 32	> 32			
CS(=O)(=O)Cc1cc(=O)c(O)c(CNc2ccc(C#Cc3ccccc3)cc2)o1 [Compound 2, 2-((4-(2-phenylethynyl)phenylamino)methyl)-3-hydroxy-6-((methylsulfonyl)methyl)-4H-pyran-4-one]	> 32	> 32	8 to 32 (≈ 19.5 to 78.2 µM)	> 32	> 32	> 32	> 32			
CS(=O)(=O)Cc1cc(=O)c(O)c(CNc2ccc(C#CC#Cc3ccccc3)cc2)o1 [Compound 5, 2-((4-(4-phenylbuta-1,3-diynyl)phenylamino)methyl)-3-hydroxy-6-((methylsulfonyl)methyl)-4H-pyran-4-one]		1 to 8 (≈ 2.31 to 18.5 µM)	1 to 8 (≈ 2.31 to 18.5 µM)	1 to 8 (≈ 2.31 to 18.5 µM)		> 32		8 to 32 (≈ 18.5 to 73.8 µM)	> 32	> 32
CNC(=O)C#CC#Cc1ccc(NCc2oc(CS(C)(=O)=O)cc(=O)c2O)cc1 [Compound 6, 5-(4-(((3-hydroxy-6-((methylsulfonyl)methyl)-4-oxo-4H-pyran-2-yl)methyl)amino)phenyl)-N-methylpenta-2,4-diynamide]		> 32	> 32	> 32		> 32		> 32	> 32	> 32
CNC(=O)c1ccc(-c2ccc(CCc3oc(CS(C)(=O)=O)cc(=O)c3O)cc2)cc1 [Compound 7, 4′-(2-(3-hydroxy-6-((methylsulfonyl)methyl)-4-oxo-4H-pyran-2-yl)ethyl)-N-methyl-[1,1′-biphenyl]-4-carboxamide]		> 32	> 32	> 32		> 32		> 32	> 32	> 32
CNC(=O)c1ccc(-c2ccc(OCc3oc(CS(C)(=O)=O)cc(=O)c3O)cc2)cc1 [Compound 8, 4′-((3-hydroxy-6-((methylsulfonyl)methyl)-4-oxo-4H-pyran-2-yl)methoxy)-N-methyl-[1,1′-biphenyl]-4-carboxamide]		> 32	> 32	> 32		> 32		> 32	> 32	> 32
CS(=O)(=O)Cc1cc(=O)c(O)c(COc2ccc(C#Cc3ccccc3)cc2)o1 [Compound 9, 2-((4-(2-phenylethynyl)phenoxy)methyl)-3-hydroxy-6-((methylsulfonyl)methyl)-4H-pyran-4-one]		> 32	8 to 32 (≈ 19.5 to 78 µM)	8 to 32 (≈ 19.5 to 78 µM)		> 32		> 32	> 32	8 to 32 (≈ 19.5 to 78 µM)
CS(=O)(=O)Cc1cc(=O)c(O)c(COc2ccc(C#CC#Cc3ccccc3)cc2)o1 [Compound 11]								> 32	> 32	1 to 8 (≈ 2.3 to 18.4 µM)
O=C(NCc1cc(=O)c(O)co1)c1ccc(C#Cc2ccccc2)cc1 [Compound 27]	> 32	> 32	> 32	> 32	> 32	> 32	> 32			
O=C(NCc1cc(=O)c(O)co1)c1ccc(-c2ccccc2)cc1 [Compound 29]	> 32	> 32	> 32	> 32	> 32	> 32	> 32			
O=c1cc(CNc2ccc(C#CC#Cc3ccccc3)cc2)occ1O [Compound 30]	> 32	> 32	> 32	1 to 8 (≈ 2.93 to 23.4 µM)	> 32	> 32	8 to 32 (≈ 23.4 to 93.7 µM)			
COC(=O)c1ccc(C#CC#Cc2ccc(NCc3occc(=O)c3O)cc2)cc1 [Compound 31]	> 32	> 32	1 to 8 (≈ 2.5 to 20 µM)	> 32	> 32	> 32	> 32			
O=C(c1ccc(C#CC#Cc2ccc(NCc3occc(=O)c3O)cc2)cc1)N1CCCCC1 [Compound 33]	8 to 32 (≈ 17.7 to 70.7 µM)	1 to 8 (≈ 2.21 to 17.7 µM)	< 1	1 to 8 (≈ 2.21 to 17.7 µM)	> 32	> 32	> 32			
O=C(NC1CC1)c1ccc(C#CC#Cc2ccc(NCc3occc(=O)c3O)cc2)cc1 [Compound 34]	1 to 8 (≈ 2.36 to 18.8 µM)	1 to 8 (≈ 2.36 to 18.8 µM)	< 1	1 to 8 (≈ 2.36 to 18.8 µM)	> 32	> 32	> 32			
O=C(c1ccc(C#CC#Cc2ccc(NCc3occc(=O)c3O)cc2)cc1)N1C[C@H]2C[C@@H]1CO2 [Compound 36]	8 to 32 (≈ 17.1 to 68.6 µM)	1 to 8 (≈ 2.14 to 17.1 µM)	< 1	1 to 8 (≈ 2.14 to 17.1 µM)	> 32	> 32	> 32			
CN(C)[C@@H]1CCN(C(=O)c2ccc(C#CC#Cc3ccc(NCc4occc(=O)c4O)cc3)cc2)C1 [Compound 37]	1 to 8 (≈ 2.08 to 16.6 µM)	1 to 8 (≈ 2.08 to 16.6 µM)	< 1	1 to 8 (≈ 2.08 to 16.6 µM)	> 32	> 32	> 32			
CN1CC2CN(C(=O)c3ccc(C#CC#Cc4ccc(NCc5occc(=O)c5O)cc4)cc3)CC2C1 (stereo not shown) [Compound 41]	1 to 8 (≈ 2.03 to 16.2 µM)	1 to 8 (≈ 2.03 to 16.2 µM)	< 1	1 to 8 (≈ 2.03 to 16.2 µM)	> 32	8 to 32 (≈ 16.2 to 64.8 µM)	> 32			
CN1CC2CN(C(=O)c3ccc(C#CC#Cc4ccc(NCc5occc(=O)c5O)cc4)cc3)C[C@@H]2C1 (stereo partly shown) [Compound 42]	1 to 8 (≈ 2.03 to 16.2 µM)	1 to 8 (≈ 2.03 to 16.2 µM)	< 1	1 to 8 (≈ 2.03 to 16.2 µM)	> 32	8 to 32 (≈ 16.2 to 64.8 µM)	> 32			
O=C(c1ccc(C#CC#Cc2ccc(NCc3occc(=O)c3O)cc2)cc1)N1CCN2CCCC2C1 (stereo not shown) [Compound 43]	1 to 8 (≈ 2.03 to 16.2 µM)	1 to 8 (≈ 2.03 to 16.2 µM)	< 1	1 to 8 (≈ 2.03 to 16.2 µM)	> 32	8 to 32 (≈ 16.2 to 64.8 µM)	> 32			
O=C(NCCO)c1ccc(C#CC#Cc2ccc(NCc3occc(=O)c3O)cc2)cc1 [Compound 44]	1 to 8 (≈ 2.33 to 18.7 µM)	1 to 8 (≈ 2.33 to 18.7 µM)	< 1	< 1	> 32	8 to 32 (≈ 18.7 to 74.7 µM)	> 32			
O=C(c1ccc(C#CC#Cc2ccc(NCc3occc(=O)c3O)cc2)cc1)N1CCC(O)C1 (stereo not shown) [Compound 45]	1 to 8 (≈ 2.2 to 17.6 µM)	1 to 8 (≈ 2.2 to 17.6 µM)	< 1	< 1	> 32	8 to 32 (≈ 17.6 to 70.4 µM)	> 32			
O=C(NCCN1CCOCC1)c1ccc(C#CC#Cc2ccc(NCc3occc(=O)c3O)cc2)cc1 [Compound 46]	8 to 32 (≈ 16.1 to 64.3 µM)	1 to 8 (≈ 2.01 to 16.1 µM)	< 1	1 to 8 (≈ 2.01 to 16.1 µM)	> 32	> 32	> 32			
O=C(c1ccc(C#CC#Cc2ccc(NCc3occc(=O)c3O)cc2)cc1)N1CCNCC1 [Compound 48]	1 to 8 (≈ 2.21 to 17.6 µM)	1 to 8 (≈ 2.21 to 17.6 µM)	< 1	1 to 8 (≈ 2.21 to 17.6 µM)	> 32	8 to 32 (≈ 17.6 to 70.6 µM)	> 32			
N[C@@H]1CN(C(=O)c2ccc(C#CC#Cc3ccc(NCc4occc(=O)c4O)cc3)cc2)CC12CC2 [Compound 49]	1 to 8 (≈ 2.09 to 16.7 µM)	1 to 8 (≈ 2.09 to 16.7 µM)	< 1	1 to 8 (≈ 2.09 to 16.7 µM)	> 32	> 32	> 32			
O=C(c1ccc(C#CC#Cc2ccc(NCc3occc(=O)c3O)cc2)cc1)N1CCC[C@H]1CO [Compound 50]	1 to 8 (≈ 2.13 to 17.1 µM)	1 to 8 (≈ 2.13 to 17.1 µM)								
COC1CN(C(=O)c2ccc(C#CC#Cc3ccc(NCc4occc(=O)c4O)cc3)cc2)C1 [Compound 51]	1 to 8 (≈ 2.2 to 17.6 µM)	1 to 8 (≈ 2.2 to 17.6 µM)	< 1	1 to 8 (≈ 2.2 to 17.6 µM)	> 32	> 32	> 32			
N#Cc1ccc(C#Cc2ccc(NCc3occc(=O)c3O)cc2)cc1 [Compound 52]	> 32	> 32	> 32	> 32	> 32	> 32	> 32			
O=C(O)c1ccc(C#Cc2ccc(NCc3occc(=O)c3O)cc2)cc1 [Compound 53]	> 32	> 32	1 to 8 (≈ 2.77 to 22.1 µM)	> 32	> 32	> 32	> 32			
